Experimental data published in paper PMC11889359, “Site-Specific Competitive Kinase Inhibitor Target Profiling Using Phosphonate Affinity Tags” (Molecular & Cellular Proteomics : MCP, 2025).
Where “and” joins values, the source holds several entries; their conditions need not be identical. Identical values can stand only once. Like-named read-outs stand apart in the source and are kept apart here.

What was measured:
DDR1 = system: DDR1; parameters: method as in PMID 36799129; conditions: cited from earlier work
EphA2 [1] = system: EphA2; parameters: method as in PMID 29928781; conditions: read-out: Literature value for EphA2, NanoBRET assay; cited from earlier work
[2] = system: apoptosis signal-regulating kinases 1-3 (MAP3K5/6/15); test: Competitive site-specific PhosID-ABPP with XO44 in intact A549 cells; type: binding, human; conditions: apparent IC50, nonunique peptide, n = 3, read-out: IC50 MAP3K5/6/15 (nonunique peptide: MAP3K5;K709, MAP3K6;K677, MAP3K15;K681)
Description: (§1) 1e^6 cells were plated in 15 cm plates (Greiner) 3 days before treatment and kept in a humidified atmosphere with 5% CO2 at 37 °C. The growth medium was replaced by 10 ml treatment [DMEM with 0.5% FBS and 100 units/ml PS supplemented with the corresponding concentration of NVP-BHG712 (Sigma-Aldrich) or DMSO] and incubated at 37 °C, 5% CO2 for 3 h. Then, 10 μl 25 mM XO44 (PF-6808472, Sigma-Aldrich) was added directly to the medium and swirled to enable dissolution. Subsequently, the cells were incubated at 37 °C, 5% CO2 for 4 h. The samples for Supplemental Fig. S1 were generated by directly incubating with 25 μM XO44-containing growth medium for 4 h.
(§2) After treatment, the cells were washed with ice-cold DPBS and harvested using a cell scraper in 1 ml ice-cold DPBS. Then, the cell suspension was spun down at 2000g for 1 min, and the supernatant was aspirated. The cell pellet was snap-frozen in liquid nitrogen and stored at −80 °C for later use.
Cell pellets were lysed in 500 μl lysis buffer per 15 cm plate of cells, consisting of 50 mM Hepes (Sigma-Aldrich, pH 7.5), 0.5% NP-40 (Applichem), 0.2% SDS (Gen-Apex), 2 mM MgCl2 (Sigma-Aldrich), 10 mM NaCl (Merck), 1× protease inhibitor cocktail (Roche), and 0.5 μl/ml Benzonase (Millipore). […] The supernatant was collected, and the protein concentration was determined by a bicinchoninic acid assay (Thermo Fisher Scientific). […]

EphA2 [3] = target: EphA2; parameters: method as in PMID 29928781; conditions: read-out: Literature value for EphA2, kinobeads; cited from earlier work
EphB4 [4] = system: EphB4; parameters: method as in PMID 20803239; conditions: cellular autophosphorylation; cited from earlier work
EphA2 [5] = target: EphA2; parameters: method as in PMID 29928781; conditions: read-out: Literature value for EphA2, microscale thermo-phoresis; cited from earlier work
EphB4 [6] = target: T1, EphB4 (Homo sapiens, UniProt P54760); test: Competitive site-specific PhosID-ABPP with XO44 in intact A549 cells; type: binding; conditions: apparent IC50, 3 h inhibitor then 25 μM XO44 4 h, n = 3, read-out: IC50 EphB4;K647
T1 construct: endogenous in cells; host or cells: cultured cells treated intact (A549 per the earlier reading)
T1 sequence (P54760 16-987): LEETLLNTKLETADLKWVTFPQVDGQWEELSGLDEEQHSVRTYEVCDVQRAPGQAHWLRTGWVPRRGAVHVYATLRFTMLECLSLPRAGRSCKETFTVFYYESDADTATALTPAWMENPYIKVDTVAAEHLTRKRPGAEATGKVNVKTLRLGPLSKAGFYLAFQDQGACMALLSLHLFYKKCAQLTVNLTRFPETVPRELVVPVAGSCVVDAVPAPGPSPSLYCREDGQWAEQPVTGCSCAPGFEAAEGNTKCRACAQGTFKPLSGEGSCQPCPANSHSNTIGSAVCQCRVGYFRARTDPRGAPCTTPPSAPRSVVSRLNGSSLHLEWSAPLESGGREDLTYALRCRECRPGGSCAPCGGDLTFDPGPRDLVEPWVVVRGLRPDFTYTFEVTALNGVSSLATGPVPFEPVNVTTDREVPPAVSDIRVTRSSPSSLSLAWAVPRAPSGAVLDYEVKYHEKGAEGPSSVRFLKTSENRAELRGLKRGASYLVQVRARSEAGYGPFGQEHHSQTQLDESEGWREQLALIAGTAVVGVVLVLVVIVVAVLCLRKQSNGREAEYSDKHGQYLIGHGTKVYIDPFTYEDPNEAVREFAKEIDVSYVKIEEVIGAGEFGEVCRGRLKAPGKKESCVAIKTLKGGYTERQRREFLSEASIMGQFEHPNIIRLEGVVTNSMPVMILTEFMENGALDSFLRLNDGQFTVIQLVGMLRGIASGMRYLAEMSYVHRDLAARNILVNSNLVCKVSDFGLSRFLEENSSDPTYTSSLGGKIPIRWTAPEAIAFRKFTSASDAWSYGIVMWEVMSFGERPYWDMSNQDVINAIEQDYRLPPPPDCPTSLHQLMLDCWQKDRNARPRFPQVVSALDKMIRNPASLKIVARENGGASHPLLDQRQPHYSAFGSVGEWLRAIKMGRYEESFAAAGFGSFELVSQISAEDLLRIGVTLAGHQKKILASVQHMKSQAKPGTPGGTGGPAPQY
Description: as §1, §2
(§3) Cell pellets were lysed in 500 μl lysis buffer per 15 cm plate of cells, consisting of 50 mM Hepes (Sigma-Aldrich, pH 7.5), 0.5% NP-40 (Applichem), 0.2% SDS (Gen-Apex), 2 mM MgCl2 (Sigma-Aldrich), 10 mM NaCl (Merck), 1× protease inhibitor cocktail (Roche), and 0.5 μl/ml Benzonase (Millipore). Cell lysates were incubated at room temperature for 15 min to allow DNA cleavage. Cell debris and DNA were spun down for 30 min at 20,567g at 16 °C. The supernatant was collected, and the protein concentration was determined by a bicinchoninic acid assay (Thermo Fisher Scientific).
(§4) The copper(I)-catalyzed azide-alkyne cycloaddition (CuAAC) was performed on cellular lysates in 2 M urea (Merck) in 1× 50 mM Hepes (pH 7.5). CuAAC components were added in the following order: 5 mM tris(3-hydroxypropyltriazolylmethyl)amine (Lumiprobe), 2.5 mM CuSO4 5·H2O (Sigma-Aldrich), 500 μM phosphonate-azide (prepared as described in van Bergen et al., 2023 ([28])), and 25 mM sodium ascorbate (Sigma-Aldrich). Samples were incubated for 2 h at room temperature while rotating. Methanol–chloroform precipitation was performed to remove the CuAAC components, and the air-dried pellets were resuspended in 8 M urea and sonicated in a bioruptor (Diagenode) with the high amplitude setting for 10 min with cycles of 30 s on and 30 s off.
(§5) Clicked and dissolved protein samples were diluted to 4M urea with 50 mM ammonium bicarbonate (pH 8, AmBic, Sigma-Aldrich). The proteins were reduced with 4 mM DTT (Sigma-Aldrich) for 60 minutes at room temperature and alkylated in the dark using 8 mM iodoacetamide (Sigma-Aldrich) for 30 min. Residual iodoacetamide was quenched by adding DTT to a final concentration of 4 mM.
(§6) Next, samples were diluted 2× with 50 mM AmBic and digested with LysC (1:75 enzyme to protein ratio, Wako) for 4 h at 37 °C. Finally, proteins were digested overnight using Trypsin (1:50, enzyme to protein ratio, Sigma-Aldrich) at 37 °C. Proteolysis with chymotrypsin was performed similarly to the trypsin digestion, only replacing both proteolytic enzymes with α-chymotrypsin (bovine, 1:75, enzyme to protein ratio, Sigma-Aldrich) overnight at 37 °C. Digested material was desalted using 3 cc C18 Seppak cartridges (Waters) and air dried using a vacuum centrifuge.
(§7) For the digestion with pepsin, protease incubation (Porcine, 1:50, enzyme to protein ratio, Sigma-Aldrich) was performed for 4 h at 37 °C in 40 mM HCl (pH 2). Digested material was directly desalted using 3 cc C18 Seppak cartridges and air dried using a vacuum centrifuge.
(§8) Samples were dephosphorylated prior to immobilized metal affinity chromatography (IMAC) enrichment. Desalted peptides were dissolved in 1× rCutSmart buffer (pH 8, New England BioLabs) and incubated with 50 units of alkaline phosphatase (calf intestinal, QuickCIP, New England BioLabs) overnight at 37 °C while shaking. After dephosphorylation, all peptides were again desalted using 3 cc C18 Seppak cartridges and air-dried using a vacuum centrifuge. […]

[7] = target: T2, cyclin G–associated kinase (GAK) (Homo sapiens, UniProt O14976); test: as above; type: binding
T2 construct: endogenous in cells; host or cells: cultured cells treated intact (A549 per the earlier reading)
T2 sequence (O14976 1-1311): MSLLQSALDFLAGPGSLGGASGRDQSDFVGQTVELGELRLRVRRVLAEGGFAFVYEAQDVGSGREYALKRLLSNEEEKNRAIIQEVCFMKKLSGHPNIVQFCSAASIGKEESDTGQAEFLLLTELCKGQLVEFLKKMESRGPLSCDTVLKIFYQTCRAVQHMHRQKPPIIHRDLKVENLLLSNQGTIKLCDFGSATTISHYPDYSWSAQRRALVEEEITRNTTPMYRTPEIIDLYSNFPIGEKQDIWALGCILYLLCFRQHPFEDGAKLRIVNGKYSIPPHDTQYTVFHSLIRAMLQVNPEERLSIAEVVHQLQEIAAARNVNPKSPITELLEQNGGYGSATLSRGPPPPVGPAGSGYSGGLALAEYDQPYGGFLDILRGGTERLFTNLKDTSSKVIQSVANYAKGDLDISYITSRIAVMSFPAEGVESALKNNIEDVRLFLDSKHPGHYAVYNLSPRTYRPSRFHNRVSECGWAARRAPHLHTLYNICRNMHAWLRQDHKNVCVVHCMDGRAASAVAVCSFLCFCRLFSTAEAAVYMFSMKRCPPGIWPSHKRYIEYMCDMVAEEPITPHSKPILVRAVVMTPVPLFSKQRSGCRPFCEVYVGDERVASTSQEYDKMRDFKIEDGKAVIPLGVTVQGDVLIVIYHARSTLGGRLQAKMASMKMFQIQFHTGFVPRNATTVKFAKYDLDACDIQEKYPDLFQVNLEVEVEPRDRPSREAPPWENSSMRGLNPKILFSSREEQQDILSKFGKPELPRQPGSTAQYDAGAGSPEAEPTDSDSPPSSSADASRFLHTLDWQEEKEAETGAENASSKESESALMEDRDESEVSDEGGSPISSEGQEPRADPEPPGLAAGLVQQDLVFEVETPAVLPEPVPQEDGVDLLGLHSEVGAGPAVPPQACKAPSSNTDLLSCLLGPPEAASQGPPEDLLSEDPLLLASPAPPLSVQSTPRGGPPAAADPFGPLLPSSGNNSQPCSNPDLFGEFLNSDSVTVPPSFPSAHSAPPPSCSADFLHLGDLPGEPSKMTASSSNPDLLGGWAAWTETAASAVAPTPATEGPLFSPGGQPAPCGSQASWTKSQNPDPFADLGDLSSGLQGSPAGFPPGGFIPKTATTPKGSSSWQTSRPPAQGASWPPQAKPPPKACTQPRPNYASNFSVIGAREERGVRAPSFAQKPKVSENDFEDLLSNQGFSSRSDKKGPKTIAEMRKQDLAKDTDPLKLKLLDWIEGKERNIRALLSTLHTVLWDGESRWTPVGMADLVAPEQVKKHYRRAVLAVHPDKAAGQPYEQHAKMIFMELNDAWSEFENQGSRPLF
Description: as §1, §2, §3, §4, §5, §6, §7, §8

In the case of NVP-BHG712, the “Binding to DDR1 in kinobeads profiling” value (DDR1) is given as “does not bind”, the IC50 (EphA2 [1]) is given as 3 nM and the IC50 [2] is given as 9700 nM. For the same substance, the Kd (EphA2 [3]) was 240 nM, the IC50 (EphB4 [4]) was 25 nM and the Kd (EphA2 [5]) was 13 nM. For the same substance, the IC50 (EphB4 [6]) was 20 nM and 20.2 nM, the IC50 ([7]; apparent IC50, lysine 69 in ATP pocket, n = 3, read-out: IC50 GAK;K69) was 9400 nM and the IC50 ([7]; apparent IC50, lysine 175 in ATP pocket, n = 3, read-out: IC50 GAK;K175) was 13000 nM.
